According to paper PMC2890037 (Biochemistry, 2010):
Positions count from the first letter of the chain named.

Legend:
Type in all cases: biochemical
[1] = target: T1, triosephosphate isomerase (TIM), wildtype yeast (Saccharomyces cerevisiae, UniProt P00942)
T1 sequence (P00942 2-248): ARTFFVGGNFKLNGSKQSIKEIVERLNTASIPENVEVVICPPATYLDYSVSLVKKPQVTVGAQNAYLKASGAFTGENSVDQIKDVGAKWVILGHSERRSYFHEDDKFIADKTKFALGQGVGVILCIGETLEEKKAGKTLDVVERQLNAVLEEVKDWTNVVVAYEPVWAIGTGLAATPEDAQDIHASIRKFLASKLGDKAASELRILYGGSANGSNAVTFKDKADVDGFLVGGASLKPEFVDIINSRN

[2] = target: T2, triosephosphate isomerase (TIM), K12G mutant yeast (Saccharomyces cerevisiae, UniProt P00942, K12G)
T2 sequence (P00942 2-248 K12G): T1 sequence (P00942 2-248) with K11G

[3] = target: T1, triosephosphate isomerase (TIM), wildtype yeast; assay: steady-state kinetics of isomerization; conditions: read-out: Km ^b mM

Question: `O=C(O)COP(=O)(O)O` [PGA, 2-phosphoglycolate] was tested. Which Ki [1] did it give?
Answer: The Ki was 19 ± 4 µM.

Question: What about the Ki [2] of the same molecule?
Answer: Its Ki is 1100 ± 200 µM.

Question: Which Km [3] does the source give for `O=C[C@H](O)COP(=O)(O)O` [GAP, (R)-glyceraldehyde 3-phosphate] here?
Answer: The Km was 1.1 ± 0.2 mM.
